Drawing on article PMC2607018, “Iodine Atoms: A New Molecular Feature for the Design of Potent Transthyretin Fibrillogenesis Inhibitors” (PLoS ONE, 2009), this text covers IC50 for 36 molecules.

The target of one assay is TTR variant Y78F (Homo sapiens, UniProt P02766, Y98F). The experiment in a line: Kinetic turbidity assay of acid induced fibril formation. Type of assay: biochemical. The settings on record: fibrillogenesis inhibition assay, effect of iodination; read-out: Inhibitory efficiency, rough screening (Figure 3, measure not given). From the text:
Two different parameters can be derived from this kinetic test. The IC50 value is the inhibitor concentration at which the initial rate of fibril formation is half than that in the absence of inhibitor. In turn, RA (%) can be defined as the percent reduction of fibril formation rate at high inhibitor concentration relative to the rate at zero concentration of tested compound.
An in vitro turbidimetric test in a high troughput mode was used to assess the fibrillogenesis inhibition potency of the compounds of the library. The mutant protein TTRY78F was incubated with various concentrations of test compounds in 96 well microplates. After lowering the pH of the solutions to 4.2, the incubation was extended for 1.5 h while recording the absorbance at 340 nm at 1 min intervals. […] (Figure S1).
The mutant Y78F TTR protein (0.4 mg.mL^-1) was incubated for 30 min (pH 7.6, 37 °C) with 6 concentrations of test compounds ranging from 0 to 40 µM in 96-well microplates.
IC50% value is the inhibitor concentration at which the initial rate of fibril formation is half of that in the absence of inhibitor. RA(%) is the percentage of reduction in fibril formation rate induced by a given concentration of test compound relative to the rate of experiments at zero concentration of test compound.
With `O=C(O)c1ccccc1O` [reference compound], the IC50 is above 100 µM. Still for that read-out and setting: the figure for `O=C(O)c1ccc(Oc2ccccc2)cc1` [Phenoxybenzoic, reference compound] is 29 µM.

In the case of `O=C(O)c1ccccc1Nc1cccc(C(F)(F)F)c1` [Flufenamic, reference compound], the IC50 worked out at 10.9 µM.

Staying with this assay, now noted: inhibitor concentration at which the initial rate of fibril formation is half; Y78F TTR 0.4 mg/mL, pH 4.2, 37 °C; read-out: Kinetic turbidity assay IC50.
Turning to `COC(=O)C(CC(=O)O)NC(=O)c1cc(-c2ccc(F)cc2F)ccc1O` [17a, N-[2’,4’-difluoro-4-hydroxy-[1,1’]-biphenyl-3-carbonyl]-L-aspartic α-methyl ester], the IC50 is above 50 µM.

With `CC(C)(C)OC(=O)[C@H](CC(N)=O)NC(=O)c1cc(-c2ccc(F)cc2F)ccc1O` [21a, N-[2’,4’-difluoro-4-hydroxy-[1,1’]-biphenyl-3-carbonyl]-L-asparagine tert-butyl ester], the IC50 was above 50 µM. The same measure, in the same setting: the figure for `CC(C)CC(NC(=O)c1cc(-c2ccc(F)cc2F)cc(I)c1O)C(=O)OC(C)(C)C` [13b, N-[2’-,4’-difluoro-4-hydroxy-5-iodo-[1,1’]-biphenyl-3-carbonyl)-L-leucine tert-butyl ester] is above 50 µM; for `NC(Cc1ccc(Oc2ccc(O)cc2)cc1)C(=O)O` (stereo not drawn) [T0, thyronine, reference compound] it is above 50 µM; for `O=C(O)CNC(=O)c1cc(-c2ccc(F)cc2F)ccc1O` [8a, N-[2’,4’-difluoro-4-hydroxy-[1,1’]-biphenyl-3-carbonyl]-glycine] it is above 50 µM. On the same count and under the same terms, the figure for `CCOC(=O)c1cc(-c2ccc(F)cc2F)ccc1O` [4a, 2’,4’-difluoro-4-hydroxy-[1,1’]-biphenyl-3-carboxylic acid ethyl ester] is above 50 µM. With `COC(=O)CCNC(=O)c1cc(-c2ccc(F)cc2F)ccc1O` [23a, N-[2’,4’-difluoro-4-hydroxy-[1,1’]-biphenyl-3-carbonyl]-β-alanine methyl ester], the IC50 is above 50 µM. `CC(=O)Oc1c(I)cc(-c2ccc(F)cc2F)cc1C(=O)O` [7b, 4-Acetoxy-2’,4’-difluoro-5-iodo-[1,1’]-biphenyl-3-carboxylic acid]: the IC50 came out at 4.8 µM. Take `COC(=O)[C@H](C)NC(=O)c1cc(-c2ccc(F)cc2F)ccc1O` [10a, N-[2’,4’-difluoro-4-hydroxy-[1,1’]-biphenyl-3-carbonyl]-L-alanine methyl ester]: the IC50 is above 50 µM. Same read-out and setting: the figure for `NC(=O)c1cc(-c2ccc(F)cc2F)cc(I)c1O` [2b, 2’,4’-difluoro-4-hydroxy-5-iodo-[1,1’]-biphenyl-3-carboxamide] is 12.4 µM; for `O=C(N[C@@H](CO)C(=O)O)c1cc(-c2ccc(F)cc2F)cc(I)c1O` [14b, N-[2’,4’-difluoro-4-hydroxy-5-iodo-[1,1’]-biphenyl-3-carbonyl]–L-serine] it is 3.7 µM.

Turning to `O=C(O)CC(NC(=O)c1cc(-c2ccc(F)cc2F)cc(I)c1O)C(=O)O` [16b, N-[2’-,4’-difluoro-4-hydroxy-5-iodo-[1,1’]-biphenyl-3-carbonyl]-L-aspartic], the IC50 came out at 5.2 µM. `COC(=O)c1cc(-c2ccc(F)cc2F)cc(I)c1N` [6b, 2’,4’-difluoro-4-amino-3-iodo-[1,1’]-biphenyl-3-carboxylic acid methyl ester]: the IC50 came to 7.5 µM. In the case of `CC(=O)Oc1ccc(-c2ccc(F)cc2F)cc1C(=O)O` [7a, 4-Acetoxy-2’,4’-difluoro-[1,1’]-biphenyl-3-carboxylic acid], the IC50 is above 50 µM. Still for that read-out and setting: the figure for `COC(=O)C(CC(=O)O)NC(=O)c1cc(-c2ccc(F)cc2F)cc(I)c1O` [17b, N-[2’,4’-difluoro-4-hydroxy-5-iodo-[1,1’]-biphenyl-3-carbonyl]-L-aspartic α-methyl ester] is 4.1 µM. Consider `CC(C)CC(NC(=O)c1cc(-c2ccc(F)cc2F)ccc1O)C(=O)OC(C)(C)C` [13a, N-[2’,4’-difluoro-4-hydroxy-[1,1’]-biphenyl-3-carbony]-L-leucine tert-butyl ester], for which the IC50 was above 50 µM. Same read-out and setting: the figure for `COC(=O)c1cc(-c2ccc(F)cc2F)ccc1O` [3a, 2’,4’-difluoro-4-hydroxy-[1,1’]-biphenyl-3-carboxylic methyl ester] is above 50 µM; for `CCOC(=O)[C@H](C)NC(=O)c1cc(-c2ccc(F)cc2F)ccc1O` [11a, N-[2’,4’-difluoro-4-hydroxy-[1,1’]-biphenyl-3-carbonyl]-L-alanine ethyl ester] it is above 50 µM. On the same count and under the same terms, the figure for `CC(C)C[C@H](NC(=O)c1cc(-c2ccc(F)cc2F)cc(I)c1O)C(=O)O` [12b, N-[2’,4’-difluoro-4-hydroxy-5-iodo-[1,1’]-biphenyl-3-carbonyl]-L-leucine] is 5 µM; for `COC(=O)[C@H](C)NC(=O)c1cc(-c2ccc(F)cc2F)cc(I)c1O` [10b, N-[2’,4’-difluoro-4-hydroxy-5-iodo-[1,1’]-biphenyl-3-carbonyl] -L-alanine methyl ester] it is 5.5 µM. `O=C(O)CCNC(=O)c1cc(-c2ccc(F)cc2F)ccc1O` [22a]: the IC50 is above 50 µM.

Turning to `NC(=O)CC(NC(=O)c1cc(-c2ccc(F)cc2F)cc(I)c1O)C(=O)O` [20b, N-[2’-,4’-difluoro-4-hydroxy-5-iodo-[1,1’]-biphenyl-3-carbonyl]-L-asparagine], the IC50 stood at 7.7 µM.

With `COC(=O)C(CC(=O)OC(C)(C)C)NC(=O)c1cc(-c2ccc(F)cc2F)ccc1O` [19a, N-[2-,4’-difluoro-4-hydroxy-[1,1’]-biphenyl-3-carbonyl]-L-aspartic α-methyl ester and β-tert-butyl ester], the IC50 is above 50 µM. For the molecule `O=C(O)C[C@H](NC(=O)c1cc(-c2ccc(F)cc2F)ccc1O)C(=O)O` [16a, N-[2’,4’-difluoro-4-hydroxy-[1,1’]-biphenyl-3-carbonyl]-L-aspartic], the IC50 is above 50 µM. As to `O=C(NC(CO)C(=O)O)c1cc(-c2ccc(F)cc2F)ccc1O` (stereo not drawn) [14a], the IC50 is above 50 µM. In the case of `Nc1ccc(-c2ccc(F)cc2F)cc1C(=O)O` [5a, 2’,4’-difluoro-4-amino-[1,1’]-biphenyl-3-carboxylic acid], the IC50 is above 50 µM. On the same count and under the same terms, the figure for `CC(C)C[C@H](NC(=O)c1cc(-c2ccc(F)cc2F)ccc1O)C(=O)O` [12a, N-[2’,4’-difluoro-4-hydroxy-[1,1’]-biphenyl-3-carbonyl]-L-leucine] is above 50 µM. Still for that read-out and setting: the figure for `Oc1c(I)cc(I)cc1I` [TIP, triiodophenol, reference compound] is 3.2 µM; for `COC(=O)c1cc(-c2ccc(F)cc2F)ccc1N` [6a, 2’,4’-difluoro-4-amino-[1,1’]-biphenyl-3-carboxylic acid methyl ester] it is 41 µM; for `COC(=O)c1cc(-c2ccc(F)cc2F)cc(I)c1O` [3b, 2’,4’-difluoro-4-hydroxy-5-iodo-[1,1’]-biphenyl-3-carboxylic methyl ester] it is 6.1 µM. As to `NC(=O)C[C@H](NC(=O)c1cc(-c2ccc(F)cc2F)ccc1O)C(=O)O` [20a, N-[2’,4’-difluoro-4-hydroxy-[1,1’]-biphenyl-3-carbonyl]-L-asparagine], the IC50 was above 50 µM. On the same count and under the same terms, the figure for `O=C(O)CNC(=O)c1cc(-c2ccc(F)cc2F)cc(I)c1O` [8b, N-[2’-,4’-difluoro-4-hydroxy-5-iodo-[1,1’]-biphenyl-3-carbonyl]-glycine] is 11.1 µM; for `NC(=O)c1cc(-c2ccc(F)cc2F)ccc1O` [2a, 2’,4’-difluoro-4-hydroxy-[1,1’]-biphenyl-3-carboxamide] it is above 50 µM.
